The text below walks through data of ChEMBL document CHEMBL1201862, “PubChem BioAssay data set” (2004).

What all share (assay): inhibition of tumour cell growth, NCI panel, 48 h
Assay [1] relates to M19-MEL.
Assay [2] has as its system LXFL 529.
Assay [3] deals with SNB-78.
Assay [4] deals with XF498.
In assay [5] the test system is DLD-1.
Assay [6] relates to DMS-273.
The test system of assay [7] is HOP-18.
For assay [8], the system named is DMS-114.
In assay [9] the test system is RXF 631.

Molecules are shown by their SMILES. Structures can show the parent of a compound that is named as a salt.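 How tested: cells in 96-well plates exposed to compound for 48 hours at five concentrations. GI50 is the concentration that inhibits growth by half.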 The source made the active and inactive calls. Cut-off read from the data, not from the text of the source: active = GI50 up to about 1.1 µM and inactive = higher.

For `O=C1CSC(/C(=C\c2ccc(Cl)cc2)c2nc3ccccc3[nH]2)=N1`, the GI50 in assay [1] is 15.2 µM (inactive); in assay [2], 20.8 µM (inactive); in assay [3], 41.3 µM (inactive); in assay [4], 1.36 µM (inactive); in assay [5], 16.3 µM (inactive); in assay [6], 21 µM (inactive).

For `NC1=NS(=O)(=O)Nc2nc(-c3cccs3)[nH]c21`, the GI50 in assay [1], in assay [7], in assay [2], in [5] and in assay [6] was > 100 µM (inactive) each time.

Take `COc1ccc(/C(C#N)=C2/O/C(=N/N)C(c3ccc(OC)c(OC)c3)C2=O)cc1OC` (stereo not given): the GI50 in [1], in [2], in assay [3], in assay [4], in assay [5] and in [6] was > 100 µM (inactive) throughout.

In the case of `COC(=O)C(Cc1cc(OC)c(OC)c(OC)c1)C(=O)OC`, the GI50 in assay [1], in assay [2], in assay [8], in assay [4], in [5] and in [9] was > 320 µM (inactive) each time. In addition, the GI50 in assay [6] was > 320 µM (inactive).

In the case of `Cc1cn2cc(-c3ccncc3)nc2s1`, the GI50 in assay [1] was > 86.7 µM (inactive); in assay [7], > 100 µM (inactive); in assay [2], > 100 µM (inactive); in [8] it was > 91.4 µM (inactive); in assay [3], > 100 µM (inactive); in [4], > 100 µM (inactive). The GI50 in assay [5], in [9] and in assay [6] was > 100 µM (inactive) each time.

On to `Cc1c(C(=O)/C=C/c2ccccc2[N+](=O)[O-])[n+]([O-])c2ccccc2[n+]1[O-]`, for which the GI50 in assay [1] was 5.97 µM (inactive); in assay [7] it was 15.4 µM (inactive); in assay [2], 4.89 µM (inactive); in [8], 5.55 µM (inactive); in assay [3], 12.3 µM (inactive); in [5], 3.53 µM (inactive). For the same compound, the GI50 was 4.34 µM (inactive) in [9] and 3.61 µM (inactive) in assay [6].

With `Clc1ccc(C(c2ccccc2Cl)C(Cl)Cl)cc1` (stereo not given) [MITOTANE], the GI50 in assay [1] is 19.7 µM (inactive); in [7], 12.5 µM (inactive); in assay [2] it was 20.9 µM (inactive); in assay [8], 18.5 µM (inactive); in assay [3] it was 20.7 µM (inactive); in assay [4] it was 15.7 µM (inactive). In addition, the GI50 is 19.5 µM (inactive) in assay [5], 17.9 µM (inactive) in assay [9] and 18.5 µM (inactive) in [6].

Turning to `CCOC(=O)/C=C1\Nc2ccccc2C(c2ccccc2)=NC1OC(C)=O` (stereo not given), the GI50 in [1], in assay [2], in assay [8], in assay [3], in assay [5] and in [6] was > 100 µM (inactive) each time.

`Oc1ccc(C2Oc3cc(O)cc4c3C2c2cc(O)cc3c2C(c2cc(O)cc5c2C4C(c2ccc(O)cc2)O5)C(c2ccc(O)cc2)O3)cc1` (stereo not given): the GI50 is 10.4 µM (inactive) in assay [1]; 5.41 µM (inactive) in assay [2]; 7.11 µM (inactive) in assay [8]; 5.51 µM (inactive) in assay [4]; > 25 µM (inactive) in assay [5]; 8.07 µM (inactive) in assay [6].

As to `COC(=O)CC1(O)C(=O)OCc2c1cc1n(c2=O)Cc2c-1nc1ccccc1c2OC` (stereo not given), the GI50 is 1.19 µM (inactive) in assay [1]; 0.522 µM (active) in assay [7]; 23.2 µM (inactive) in assay [2]; 0.164 µM (active) in assay [8]; 26 µM (inactive) in assay [3]; 13.3 µM (inactive) in assay [4]. The GI50 in [5] was 27.4 µM (inactive); in assay [9], 1.63 µM (inactive); in assay [6], 0.042 µM (active).

For the compound `O=C(N/C(=C\c1cc(Cl)ccc1Cl)c1nc2c(O)nc(S)nc2[nH]1)c1ccccc1`, the GI50 in assay [1] was 27 µM (inactive); in [2], 15.6 µM (inactive); in [8] it was 25.2 µM (inactive); in assay [3] it was 55.3 µM (inactive); in assay [4], > 48.6 µM (inactive); in assay [5] it was 15.2 µM (inactive). Also, in [9], the GI50 is 20.4 µM (inactive).

Consider `CC1c2ccccc2Cn2cc3c(c21)C(=O)c1cccc(OP(=O)(O)OCc2ccccc2)c1C3=O` (stereo not given), for which the GI50 in assay [2] is > 100 µM (inactive); in assay [8], > 100 µM (inactive); in assay [4], 34.3 µM (inactive); in assay [5] it was > 100 µM (inactive); in assay [9], > 100 µM (inactive).

For the compound `Cc1cc(N(CCC#N)CCC#N)ccc1/C=C1N=C(/C=C\c2ccccc2)OC\1=O`, the GI50 in assay [1], in assay [7], in [2], in assay [8], in [3] and in assay [4] was > 100 µM (inactive) each time. In addition, the GI50 in assay [5] and in [6] was > 100 µM (inactive) throughout.

Turning to `Cc1ccc(NCCO)cc1`, the GI50 in [2] was > 100 µM (inactive); in assay [8], 61.7 µM (inactive); in [3], > 100 µM (inactive); in assay [4], > 100 µM (inactive); in [5], > 100 µM (inactive).

For the compound `O=C(Nc1ccc(Sc2ccc(/N=N/c3c(O)c(S(=O)(=O)O)cc4cc(S(=O)(=O)O)ccc34)cc2)cc1)c1ccc(/N=N/c2c(O)c(S(=O)(=O)O)cc3cc(S(=O)(=O)O)ccc23)cc1`, the GI50 in assay [1] was 19.5 µM (inactive); in [7], 23 µM (inactive); in assay [2], 18.1 µM (inactive); in assay [8], 5.42 µM (inactive); in assay [3], 25.8 µM (inactive); in assay [4], 36.4 µM (inactive). Also, the GI50 in [5] is 51.1 µM (inactive); in [6], 15.1 µM (inactive).

Turning to `CSc1nsc(-c2ccccc2)[s+]1.[O-][Cl+3]([O-])([O-])[O-]`, the GI50 in assay [1], in assay [7], in assay [3], in assay [5], in [9] and in assay [6] was > 100 µM (inactive) throughout.

As for `Cc1cc(Cl)ccc1NC(=O)CC1SC(NC(=O)c2ccccc2Cl)=NC1=O` (stereo not given), the GI50 in [1] is 19.2 µM (inactive); in assay [2], 18 µM (inactive); in assay [8] it was 20.4 µM (inactive); in assay [3] it was 21.6 µM (inactive); in assay [4], 14.8 µM (inactive); in assay [5], 19.1 µM (inactive). Further, in assay [6], the GI50 was 18.9 µM (inactive).

Take `c1ccc(P(=Nc2ccccc2N=P(c2ccccc2)(c2ccccc2)c2ccccc2)(c2ccccc2)c2ccccc2)cc1`: the GI50 in assay [1] is 0.818 µM (active); in assay [7], 0.172 µM (active); in assay [2], 0.337 µM (active); in assay [8] it was 0.405 µM (active); in assay [3] it was 0.489 µM (active); in assay [4], 0.208 µM (active). Also, the GI50 in assay [5] is 1.47 µM (inactive); in assay [9], 1.34 µM (inactive); in assay [6] it was 0.309 µM (active).

Consider `CCc1cccc(C(C)C)c1N1C(=O)C(=O)C(c2nc3ccccc3s2)C(=O)C1=O`, for which the GI50 is 39.1 µM (inactive) in [1]; > 50 µM (inactive) in assay [7]; 28.9 µM (inactive) in assay [2]; 29.6 µM (inactive) in assay [8]; > 50 µM (inactive) in assay [3]; > 50 µM (inactive) in assay [4]. Besides, the GI50 in assay [5] was 20.5 µM (inactive); in assay [6] it was > 45.3 µM (inactive).

In the case of `CN(C)CCCN1c2ccccc2Sc2ccc(C(F)(F)F)cc21` [TRIFLUPROMAZINE HYDROCHLORIDE], the GI50 in [1] was 17.5 µM (inactive); in [2], 60 µM (inactive); in assay [8], 18.2 µM (inactive); in [3] it was 15.7 µM (inactive); in assay [5] it was 17.2 µM (inactive); in [6] it was 14.7 µM (inactive).

For the compound `COC1C(O)CC(OC2CC(OC3CC(O[C@@H]4C(=O)c5c(cc6cc(OC7CC(OC8CC(O)C(O)C(C)O8)C(O)C(C)O7)c(C)c(O)c6c5O)C[C@H]4[C@H](OC)C(=O)[C@@H](O)[C@@H](C)O)OC(C)C3O)OC(C)C2O)OC1C` (stereo not given in full), the GI50 was 0.0109 µM (active) in assay [1]; 0.0211 µM (active) in assay [7]; 0.0129 µM (active) in assay [2]; 0.0272 µM (active) in [8]; < 0.01 µM (active) in assay [3]; < 0.01 µM (active) in assay [4]. The GI50 in [5] is 0.177 µM (active); in assay [6], < 0.0168 µM (active).

As to `COc1cccc(NC(=O)/C(CC(=O)CC(c2ccccc2)c2c(O)c3ccccc3oc2=O)=N\NC(C)(C)C)c1OC` (stereo not given), the GI50 in assay [1] was > 100 µM (inactive); in [2] it was 41.3 µM (inactive); in assay [8], 22.8 µM (inactive); in assay [3] it was > 100 µM (inactive); in assay [5], 40.6 µM (inactive).

Turning to `CC(C)(CN1CCOCC1)C(=O)/C=C/c1ccc(/C=C/C(=O)C(C)(C)CN2CCOCC2)cc1`, the GI50 is 1.1 µM (active) in assay [2]; 0.757 µM (active) in assay [8]; 1.21 µM (inactive) in assay [3]; 1.42 µM (inactive) in assay [4]; 0.338 µM (active) in assay [5]; 1.36 µM (inactive) in [9]. In addition, the GI50 in assay [6] is 0.457 µM (active).

Consider `Nc1nc[n+](Cc2ccccc2CCO)c2[nH]cnc12`, for which the GI50 in assay [1], in assay [7], in [2], in assay [8], in assay [4] and in [9] was > 100 µM (inactive) throughout. Moreover, the GI50 in assay [6] is > 100 µM (inactive).

In the case of `COC(=O)c1cc(Cl)ccc1NC(=O)c1ccc([N+](=O)[O-])cc1`, the GI50 is 40.7 µM (inactive) in assay [1]; 25.8 µM (inactive) in assay [2]; 33.5 µM (inactive) in [8]; 32.6 µM (inactive) in assay [3]; 14.4 µM (inactive) in assay [4]; 38.8 µM (inactive) in assay [5]. Moreover, the GI50 in [9] is 17.6 µM (inactive); in assay [6] it was 21.6 µM (inactive).
